Patent US20100324087A1, “COMBINED USE OF ANGIOGENESIS INHIBITOR AND TAXANE” (EISAI R&D MANAGEMENT CO., LTD., priority 2008, published 2010)

Tested on: Human non-small-cell lung cancer cell line A549
Assay: Combination use of E7080 and docetaxel in subcutaneous transplanted models (in vivo) of A549
Conditions: alone, A549 subcutaneous transplant, nude mouse
Method: Human non-small-cell lung cancer cell line A549 (purchased from Dainippon Sumitomo Pharma Co., Ltd) was cultured in RPMI1640 (containing 10% FBS) in a 5% carbon dioxide gas incubator at 37° C. to about 80% confluence, and then the cells were treated with trypsin-EDTA and then collected. A 1×10^8 cells/mL suspension was prepared with a phosphate buffer, which was further added with an equivalent amount of matrigel matrix to give a 5×10^7 cells/mL suspension, and each 0.1 mL of the resulting cell suspension was subcutaneously transplanted to a nude mouse at the side of its body. Fourteen days after the transplantation, 4-(3-chloro-4-(cyclopropylaminocarbonyl)aminophenoxy)-7-methoxy-6-quinolinecarboxamide (hereinafter, also referred to as “E7080”) was orally administered for 10 or 30 mg/kg, once a day for four weeks, while 15 mg/kg of docetaxel was intravenously administered alone or in combination every four days for three times. The major and minor axes of tumors were measured with Digimatic caliper (Mitsutoyo Corporation), and tumor volumes and relative tumor volumes were calculated according to the following formulae:
Tumor Volume (TV)=Major axis of tumor (mm)×(Minor axis of tumor)^2 (mm^2)/2
Relative Tumor Volume (RTV)=Tumor volume on measurement day/Tumor volume on the first administration day.

Compound | Relative tumor volume on Day 29, Average ± standard deviation (Docetaxel 15 mg/kg intravenously every four days for three times) | Relative tumor volume on Day 29, Average ± standard deviation (E7080 10 mg/kg orally once a day for four weeks) | Relative tumor volume on Day 29, Average ± standard deviation (E7080 30 mg/kg orally once a day for four weeks)
CC(=O)O[C@@]12CO[C@@H]1C[C@H](O)[C@@]1(C)C(=O)[C@H](O)C3=C(C)[C@@H](OC(=O)[C@H](O)[C@@H](NC(=O)OC(C)(C)C)c4ccccc4)C[C@@](O)([C@@H](OC(=O)c4ccccc4)[C@H]21)C3(C)C [Docetaxel, docetaxel, reference compound] | 1.48 ± 0.29 | – | –
COc1cc2nccc(Oc3ccc(NC(=O)NC4CC4)c(Cl)c3)c2cc1C(N)=O [E7080, 4-(3-chloro-4-(cyclopropylaminocarbonyl)aminophenoxy)-7-methoxy-6-quinolinecarboxamide] | – | 1.47 ± 0.16 | 1.14 ± 0.30
